In ChEMBL document CHEMBL5226365, “Xylochemical Synthesis and Biological Evaluation of the Orchidaceous Natural Products Isoarundinin I, Bleochrin F, Blestanol K, and Pleionol” (J Nat Prod, 2023):

Columns and labels:
[1] = system: CCRF-CEM; test: Cytotoxicity against human CCRF-CEM cells assessed as inhibition of cell growth incubated for 72 hrs by resazurin assay; type: functional, cell-based
[2] = system: ADR5000 cell line; test: Cytotoxicity against human CEM/ADR5000 cells overexpressing P-gp assessed as inhibition of cell growth incubated for 72 hrs by resazurin assay; type: functional, cell-based; settings: ADR5000, 72 h
[3] = Resistance index, ratio of IC50 for cytotoxicity against human CEM/ADR5000 cells overexpressing P-gp to IC50 for cytotoxicity against human CCRF-CEM cells; type: functional
[4] = Cytotoxicity against human PBMC assessed as cell viability at 100 uM incubated for 72 hrs by resazurin assay; type: toxicity, cell-based

## COc1cc(O)cc(CCc2cccc(O)c2)c1Cc1ccc(O)cc1
[1]
  IC50: 43.4 µM
[2]
  IC50: 60.4 µM
[3]
  Ratio IC50: 1.4
[4]
  Activity: Non-Toxic

## COc1cc(C2c3ccc(O)cc3CCc3cc(O)cc(OC)c32)ccc1O (stereo unspecified)
[1]
  IC50: 18.7 µM
[2]
  IC50: 17.2 µM
[3]
  Ratio IC50: 0.9
[4]
  Activity: Non-Toxic

## COc1cc(O)c(Cc2ccc(O)cc2)c2c1C(c1ccc(O)cc1)c1ccc(O)cc1CC2 (racemic)
[1]
  IC50: 6.7 µM
[2]
  IC50: 47.8 µM
[3]
  Ratio IC50: 7.1
[4]
  Activity: Non-Toxic

## COc1cc(O)cc2c1C(c1ccc(O)cc1)c1ccc(O)cc1CC2 (racemic)
[1]
  IC50: 45.7 µM
[2]
  IC50: > 100 µM
[4]
  Activity: Non-Toxic

## COc1cccc2c1C(=O)c1c(O)c3c(c(O)c1C2=O)C[C@@](O)(C(=O)CO)C[C@@H]3O[C@H]1C[C@H](N)[C@H](O)[C@H](C)O1 [DOXORUBICIN]
[3]
  Ratio IC50: >1000
